For this experiment, the target named is T1, human wild-type (WT)-pendrin (Homo sapiens, UniProt O43511).
T1 construct: expressed in transfected cells
T1 sequence (O43511 1-780): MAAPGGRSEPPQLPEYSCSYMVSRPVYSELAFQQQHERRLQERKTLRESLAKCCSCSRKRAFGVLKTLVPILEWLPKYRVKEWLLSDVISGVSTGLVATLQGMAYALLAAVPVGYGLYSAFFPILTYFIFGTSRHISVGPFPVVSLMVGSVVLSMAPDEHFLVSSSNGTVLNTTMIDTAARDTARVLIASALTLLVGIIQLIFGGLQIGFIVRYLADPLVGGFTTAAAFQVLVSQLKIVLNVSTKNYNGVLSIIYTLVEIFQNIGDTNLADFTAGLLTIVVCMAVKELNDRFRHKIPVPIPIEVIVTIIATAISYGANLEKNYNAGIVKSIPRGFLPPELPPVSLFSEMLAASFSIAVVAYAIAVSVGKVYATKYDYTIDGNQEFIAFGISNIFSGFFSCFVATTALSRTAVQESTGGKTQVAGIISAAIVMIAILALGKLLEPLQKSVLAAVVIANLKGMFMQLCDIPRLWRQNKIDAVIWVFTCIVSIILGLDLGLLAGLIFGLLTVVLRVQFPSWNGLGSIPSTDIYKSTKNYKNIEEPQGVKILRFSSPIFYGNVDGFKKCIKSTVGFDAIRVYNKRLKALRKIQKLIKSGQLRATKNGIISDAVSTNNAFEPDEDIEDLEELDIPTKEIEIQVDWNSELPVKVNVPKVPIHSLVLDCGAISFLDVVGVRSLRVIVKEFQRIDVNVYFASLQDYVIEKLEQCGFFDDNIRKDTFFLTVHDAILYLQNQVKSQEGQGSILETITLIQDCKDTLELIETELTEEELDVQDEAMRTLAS
In words: Pendrin Cl−/I− exchange inhibitory activity, YFP fluorescence in CHO-K1 cells. The experiment is classed as cell-based. The settings on record: for IC50: CHO-K1-YFP cells, read-out: IC50 of pendrin-induced Cl−/I− anion exchange; for IC50 / Inhibition of pendrin-induced Cl−/I− anion exchange: FIG. 1; for inhibition at 1 µM / inhibition at 3 µM / inhibition at 10 µM / inhibition at 30 µM / inhibition at 100 µM: CHO-K1; for inhibition at 1 µM: compound concentration 1 μM; for inhibition at 3 µM: compound concentration 3 μM; for inhibition at 10 µM: compound concentration 10 μM; for inhibition at 30 µM: compound concentration 30 μM; for inhibition at 100 µM: compound concentration 100 μM. An outline of the steps:
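CHO-K1 cells stably co-expressing human WT pendrin and YFP-F46L/H148Q/I152L were preincubated with compound (1–100 µM, or 50 µM single dose) for 10 min at 37°C in HEPES buffer, pH 7.4. NaI solution was then injected and YFP quenching was recorded; the initial iodide influx rate came from the initial fluorescence slope.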

Take `Cc1ccc(C)c(N2CCN(C(=O)Cc3c(C(=O)O)[nH]c4ccc(Cl)cc34)CC2)c1` [YPI-H05, 5-chloro-3-(2-(4-(2,5-dimethylphenyl)piperazin-1-yl-)-2-oxoethyl)-1H-indole-2-carboxylic acid]: the IC50 turned out to be 2700 nM, the inhibition at 1 µM was less than 20%, testing at 3 µM gave an inhibition of 24.6% and the inhibition at 10 µM was 67.9%. In addition, the inhibition at 30 µM was 95.4%, the inhibition at 100 µM was determined as 96.5% and the “Inhibition of pendrin-induced Cl−/I− anion exchange” value is given as “in a concentration-dependent manner”.

Take `Cc1ccc2[nH]c(C(=O)O)c(CC(=O)N3CCN(c4c(C)cccc4Cl)CC3)c2c1` [YPI-A4948, 3-(2-(4-(2-Chloro-6-methylphenyl)piperazin-1-yl)-2-oxoethyl)-5-methyl-1H-indole-2-carboxylic acid]: the IC50 amounted to 570 nM, at 1 µM the inhibition was 70.5%, at 3 µM the inhibition was 93.6% and at 10 µM the inhibition was 100%. The inhibition at 30 µM came to 100%, the inhibition at 100 µM was 100% and the “Inhibition of pendrin-induced Cl−/I− anion exchange” value is “in a concentration-dependent manner”. In addition, for the setting “ratio of IC50 values”, the “Efficacy on pendrin relative to YPI-H05” value is recorded as “approximately 5 times”.

For orientation: inhibition means the percentage by which the read-out fell short of the control. Low values mean little suppression, high ones strong suppression.
